In PMC3119665, “A New Drug Design Targeting the Adenosinergic System for Huntington's Disease” (PLoS ONE, 2011):
pEC50: −log10 of the molar value.

Legend:
[1] = system: Adrenergic α 1, Non-Selective; experiment: Radioligand binding panel (Table S1); design: species or system rat; settings: 10 μM T1-11, n 2
[2] = target: T1, Bombesin BB3 (Homo sapiens, UniProt P32247); experiment: Radioligand binding panel (Table S1); settings: 10 μM T1-11, n 2
T1 construct: purchased MDS Pharma Services Taiwan

[3] = target: T2, Cholecystokinin CCK. (CCKA) (Homo sapiens, UniProt P32238); experiment: Radioligand binding panel (Table S1); settings: 10 μM T1-11, n 2
T2 construct: purchased MDS Pharma Services Taiwan
T2 sequence (P32238 whole entry): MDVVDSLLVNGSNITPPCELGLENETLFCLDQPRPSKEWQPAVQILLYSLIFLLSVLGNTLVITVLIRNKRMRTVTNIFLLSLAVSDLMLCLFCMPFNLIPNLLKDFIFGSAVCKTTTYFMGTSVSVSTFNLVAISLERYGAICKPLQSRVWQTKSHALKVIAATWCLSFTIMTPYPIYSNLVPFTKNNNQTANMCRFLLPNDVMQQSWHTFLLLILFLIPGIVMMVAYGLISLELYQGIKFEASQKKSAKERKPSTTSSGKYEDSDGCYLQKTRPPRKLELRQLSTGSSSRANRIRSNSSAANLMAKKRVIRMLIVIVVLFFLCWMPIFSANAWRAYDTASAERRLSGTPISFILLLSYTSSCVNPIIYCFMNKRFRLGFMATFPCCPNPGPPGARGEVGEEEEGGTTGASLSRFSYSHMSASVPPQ

[4] = target: T3, Corticotropin Releasing Factor, CRF1 (Homo sapiens, UniProt P34998); experiment: Radioligand binding panel (Table S1); settings: 10 μM T1-11, n 2
T3 construct: purchased MDS Pharma Services Taiwan

[5] = target: T4, Dopamine D4.7 (Homo sapiens, UniProt P21917, INS283GLPPDPCGPDCAPPAPGLPQDPCGPDCAPPAPGLPRGPCGPDCAPPAP/S284G); experiment: Radioligand binding panel (Table S1); settings: 10 μM T1-11, n 2
T4 construct: purchased MDS Pharma Services Taiwan

[6] = target: T5, Dopamine D5 (Homo sapiens, UniProt P21918); experiment: Radioligand binding panel (Table S1); settings: 10 μM T1-11, n 2
T5 construct: purchased MDS Pharma Services Taiwan

[7] = target: T6, Endothelin ETA (Homo sapiens, UniProt P25101); experiment: Radioligand binding panel (Table S1); settings: 10 μM T1-11, n 2
T6 construct: purchased MDS Pharma Services Taiwan
T6 sequence (P25101 21-427): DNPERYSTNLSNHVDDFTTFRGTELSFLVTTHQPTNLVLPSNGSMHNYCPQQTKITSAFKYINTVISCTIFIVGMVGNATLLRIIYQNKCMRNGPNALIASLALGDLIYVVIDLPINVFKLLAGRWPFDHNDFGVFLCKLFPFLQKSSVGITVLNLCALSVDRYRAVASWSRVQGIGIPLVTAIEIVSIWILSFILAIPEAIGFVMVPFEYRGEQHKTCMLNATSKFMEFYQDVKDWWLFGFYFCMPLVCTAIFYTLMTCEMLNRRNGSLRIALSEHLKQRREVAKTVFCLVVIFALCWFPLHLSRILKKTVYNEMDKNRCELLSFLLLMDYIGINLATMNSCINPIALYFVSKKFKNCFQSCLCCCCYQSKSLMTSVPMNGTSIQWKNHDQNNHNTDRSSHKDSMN

[8] = target: T7, GABAB1A (Homo sapiens, UniProt Q9UBS5); experiment: Radioligand binding panel (Table S1); settings: 10 μM T1-11, n 2
T7 construct: purchased MDS Pharma Services Taiwan
T7 sequence (Q9UBS5 15-961 limits assumed): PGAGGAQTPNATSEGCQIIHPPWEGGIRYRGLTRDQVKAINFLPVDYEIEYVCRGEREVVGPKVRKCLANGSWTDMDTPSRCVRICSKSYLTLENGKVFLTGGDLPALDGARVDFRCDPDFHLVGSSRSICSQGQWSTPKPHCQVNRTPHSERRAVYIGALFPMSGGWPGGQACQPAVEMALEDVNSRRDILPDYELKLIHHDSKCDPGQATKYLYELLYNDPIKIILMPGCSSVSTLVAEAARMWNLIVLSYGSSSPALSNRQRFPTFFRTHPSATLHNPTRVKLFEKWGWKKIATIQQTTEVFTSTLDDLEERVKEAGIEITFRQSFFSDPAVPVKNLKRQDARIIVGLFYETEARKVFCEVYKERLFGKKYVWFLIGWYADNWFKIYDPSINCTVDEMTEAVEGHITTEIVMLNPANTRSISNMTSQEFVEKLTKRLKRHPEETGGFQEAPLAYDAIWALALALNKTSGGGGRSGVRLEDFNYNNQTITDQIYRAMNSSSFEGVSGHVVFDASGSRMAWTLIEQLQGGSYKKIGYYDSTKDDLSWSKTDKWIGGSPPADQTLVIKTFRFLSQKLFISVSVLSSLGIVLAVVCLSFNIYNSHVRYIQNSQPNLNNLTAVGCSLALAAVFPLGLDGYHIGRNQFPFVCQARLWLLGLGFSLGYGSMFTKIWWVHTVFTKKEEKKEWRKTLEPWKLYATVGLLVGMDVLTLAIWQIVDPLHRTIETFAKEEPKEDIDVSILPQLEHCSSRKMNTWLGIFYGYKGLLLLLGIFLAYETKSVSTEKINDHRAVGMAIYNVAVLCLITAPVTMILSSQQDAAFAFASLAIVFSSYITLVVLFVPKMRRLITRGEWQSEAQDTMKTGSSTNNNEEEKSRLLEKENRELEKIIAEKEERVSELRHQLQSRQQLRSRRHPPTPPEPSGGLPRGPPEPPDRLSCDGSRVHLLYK
T7 sequence (O75899 42-941 partner): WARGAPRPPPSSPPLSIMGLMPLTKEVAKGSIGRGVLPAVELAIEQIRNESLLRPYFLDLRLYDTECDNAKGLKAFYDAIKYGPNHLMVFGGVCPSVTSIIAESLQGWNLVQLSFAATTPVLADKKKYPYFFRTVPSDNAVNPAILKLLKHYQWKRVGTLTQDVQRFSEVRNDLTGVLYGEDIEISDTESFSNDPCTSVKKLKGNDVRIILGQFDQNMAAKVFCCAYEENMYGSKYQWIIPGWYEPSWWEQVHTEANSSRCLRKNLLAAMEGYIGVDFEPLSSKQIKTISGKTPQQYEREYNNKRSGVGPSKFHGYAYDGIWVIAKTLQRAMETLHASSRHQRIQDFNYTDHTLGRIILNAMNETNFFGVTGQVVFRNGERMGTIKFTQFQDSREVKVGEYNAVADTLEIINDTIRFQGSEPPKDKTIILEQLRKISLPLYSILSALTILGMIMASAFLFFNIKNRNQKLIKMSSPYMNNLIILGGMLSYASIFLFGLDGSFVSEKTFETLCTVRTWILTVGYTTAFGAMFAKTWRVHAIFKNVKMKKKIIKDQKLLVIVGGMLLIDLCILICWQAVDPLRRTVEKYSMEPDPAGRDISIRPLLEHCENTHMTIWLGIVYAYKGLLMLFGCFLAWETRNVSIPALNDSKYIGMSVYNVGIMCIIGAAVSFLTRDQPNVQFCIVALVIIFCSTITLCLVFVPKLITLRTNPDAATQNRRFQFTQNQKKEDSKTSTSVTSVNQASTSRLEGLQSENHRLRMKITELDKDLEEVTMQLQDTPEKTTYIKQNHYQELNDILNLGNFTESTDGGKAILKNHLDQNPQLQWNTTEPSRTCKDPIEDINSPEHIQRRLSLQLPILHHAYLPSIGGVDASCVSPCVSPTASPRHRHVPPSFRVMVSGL

[9] = target: T8, Histamine H2 (Homo sapiens, UniProt P25021); experiment: Radioligand binding panel (Table S1); settings: 10 μM T1-11, n 2
T8 construct: purchased MDS Pharma Services Taiwan

[10] = system: Imidazoline I2, Central; experiment: Radioligand binding panel (Table S1); design: species or system rat; settings: 10 μM T1-11, n 2
[11] = target: T9, Opiate δ (OP1, DOP) (Homo sapiens, UniProt P41143); experiment: Radioligand binding panel (Table S1); settings: 10 μM T1-11, n 2
T9 construct: purchased MDS Pharma Services Taiwan
T9 sequence (P41143 whole entry): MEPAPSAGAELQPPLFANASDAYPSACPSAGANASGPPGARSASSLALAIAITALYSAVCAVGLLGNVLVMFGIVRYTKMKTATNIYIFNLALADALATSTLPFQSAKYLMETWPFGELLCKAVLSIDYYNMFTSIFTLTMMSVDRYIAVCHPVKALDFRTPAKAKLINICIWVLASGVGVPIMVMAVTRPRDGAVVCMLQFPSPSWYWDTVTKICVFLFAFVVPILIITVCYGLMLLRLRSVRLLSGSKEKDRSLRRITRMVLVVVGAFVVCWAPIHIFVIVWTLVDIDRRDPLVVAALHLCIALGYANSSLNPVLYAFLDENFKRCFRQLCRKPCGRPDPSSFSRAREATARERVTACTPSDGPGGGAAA

[12] = target: T10, Potassium Channel [KATP] (Cricetus cricetus, UniProt Q09427); experiment: Radioligand binding panel (Table S1); design: species or system hamster; settings: 10 μM T1-11, n 2
T10 construct: purchased MDS Pharma Services Taiwan
Method: (§1) Radoligand binding assays were performed by MDS Pharma Services Taiwan (Taipei, Taiwan) using standard binding protocols. For the binding assay of the A2AR [67], membrane proteins collected from HEK293 cells overexpressing the human A2AR were incubated in reaction buffer [50 mM Tris-HCl (pH 7.4), 10 mM MgCl2, 1 mM EDTA, and 2 U/mL adenosine deaminase] containing ^3H-CGS21680 (50 nM) for 90 min at 25°C. Nonspecific binding was assessed in the presence of 50 µM adenosine- 5′-N-ethylcarboxamide. […] Nonspecific binding was assessed in the presence of 1 µM IB-MECA (Tocris Bioscience, Ellisville, MS, USA).

[13] = target: T11, Serotonin (5-Hydroxytryptamine) 5-HT2A (Homo sapiens, UniProt P28223); experiment: Radioligand binding panel (Table S1); settings: 10 μM T1-11, n 2
T11 construct: purchased MDS Pharma Services Taiwan
T11 sequence (P28223 whole entry): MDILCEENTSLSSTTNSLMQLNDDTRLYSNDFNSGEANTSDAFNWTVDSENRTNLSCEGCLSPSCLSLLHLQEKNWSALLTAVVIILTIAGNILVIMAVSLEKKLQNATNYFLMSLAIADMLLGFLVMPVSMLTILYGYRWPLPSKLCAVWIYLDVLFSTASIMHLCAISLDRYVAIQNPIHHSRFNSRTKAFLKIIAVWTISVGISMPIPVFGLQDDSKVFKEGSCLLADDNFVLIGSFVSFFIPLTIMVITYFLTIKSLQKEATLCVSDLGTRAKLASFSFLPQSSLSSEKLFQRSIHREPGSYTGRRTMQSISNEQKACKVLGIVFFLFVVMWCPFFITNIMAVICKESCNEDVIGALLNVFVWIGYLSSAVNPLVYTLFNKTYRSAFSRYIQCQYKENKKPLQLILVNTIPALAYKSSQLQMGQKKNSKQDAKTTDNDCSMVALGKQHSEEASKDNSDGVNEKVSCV
Method: as §1

[14] = target: T12, Serotonin (5-Hydroxytryptamine) 5-HT2C (Homo sapiens, UniProt P28335); experiment: Radioligand binding panel (Table S1); settings: 10 μM T1-11, n 2
T12 construct: purchased MDS Pharma Services Taiwan
T12 sequence (P28335 33-458): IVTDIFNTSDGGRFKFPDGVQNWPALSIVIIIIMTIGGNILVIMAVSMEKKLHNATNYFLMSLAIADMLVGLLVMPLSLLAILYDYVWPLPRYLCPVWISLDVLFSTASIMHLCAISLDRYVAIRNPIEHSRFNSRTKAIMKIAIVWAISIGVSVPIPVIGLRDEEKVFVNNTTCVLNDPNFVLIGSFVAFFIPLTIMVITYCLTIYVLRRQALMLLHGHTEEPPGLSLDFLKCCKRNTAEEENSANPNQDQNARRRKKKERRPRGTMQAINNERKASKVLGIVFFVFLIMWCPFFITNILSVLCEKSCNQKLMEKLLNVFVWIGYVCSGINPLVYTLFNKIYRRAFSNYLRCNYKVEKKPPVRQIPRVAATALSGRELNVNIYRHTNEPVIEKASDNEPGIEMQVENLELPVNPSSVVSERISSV

[15] = target: T13, Somatostatin sst5 (Homo sapiens, UniProt P35346); experiment: Radioligand binding panel (Table S1); settings: 10 μM T1-11, n 2
T13 construct: purchased MDS Pharma Services Taiwan

[16] = system: Thyroid Hormone; experiment: Radioligand binding panel (Table S1); design: species or system rat; settings: 10 μM T1-11, n 2
[17] = target: T14, Transporter, Dopamine (Homo sapiens, UniProt Q01959); experiment: Radioligand binding panel (Table S1); settings: 10 μM T1-11, n 2
T14 construct: purchased MDS Pharma Services Taiwan

[18] = system: Vascular Endothelial Growth Factor (VEGF); experiment: Radioligand binding panel (Table S1); design: species or system human; settings: 10 μM T1-11, n 2
[19] = target: T15, A2AR (Rattus norvegicus, UniProt P30543); experiment: cAMP assay in PC12 cells; assay type: cell-based
T15 construct: Treatment of PC12 cells with T1-11 dose-dependently elevated the cellular cAMP levels; endogenous in cells; host or cells: PC12
T15 sequence (P30543 whole entry): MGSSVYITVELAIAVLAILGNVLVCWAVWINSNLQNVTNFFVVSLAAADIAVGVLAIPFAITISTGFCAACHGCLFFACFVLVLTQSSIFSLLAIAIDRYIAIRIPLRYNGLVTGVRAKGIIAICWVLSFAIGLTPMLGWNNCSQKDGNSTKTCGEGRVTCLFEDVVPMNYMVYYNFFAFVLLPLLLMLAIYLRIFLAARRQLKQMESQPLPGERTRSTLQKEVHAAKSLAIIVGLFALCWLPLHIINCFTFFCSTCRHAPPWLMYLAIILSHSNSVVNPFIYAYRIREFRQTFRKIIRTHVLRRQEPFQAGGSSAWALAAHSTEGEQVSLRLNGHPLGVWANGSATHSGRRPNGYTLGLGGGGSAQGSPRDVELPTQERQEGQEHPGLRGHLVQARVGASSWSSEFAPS
Method: PC12 cells were plated at the density of 5×10^5 cells/well (on 12-well plates) and incubated with the indicated reagent(s) for the desired period of time. Cells were washed twice with ice-cold Locke's solution (150 mM NaCl, 5.6 mM KCl, 5 mM glucose, 1 mM MgCl2, and 10 mM HEPES, adjusted to pH 7.4). Cellular cAMP was extracted by adding 0.3 ml of 0.1 M HCl to each well and incubating this for 10 min on ice.

[20] = system: striatal adenosine; experiment: In vivo brain dialysis and adenosine measurement; design: species or system mice; settings: T1-11 100 µM perfused through the dialysis probe
Method: The level of adenosine in the brain was determined using microdialysis as previously described, [73]. In brief, concentrated dialysis probes with 4-mm dialysis membranes (CMA, Stockholm, Sweden) were used to monitor the extracellular adenosine in the striatum of rats. After inducing anesthesia with chloral hydrate ([…], IP), rats were implanted with the probe, and the coordinates for implantation were AP +1.0 mm, LM +2.8 mm, and VD −6.5 mm. Ringer's solution (140 mM NaCl, 1.2 mM CaCl2, 3.0 mM KCl, 1.0 mM MgCl2, and 0.04 mM ascorbic acid) was continuously perfused (0.5 µl/min) via probes throughout the experiments. After implantation and perfusion for 1.5 h, the perfusate was collected for 1 h as a baseline and then Ringer's solution containing T1-11 (100 µM) was perfused for another 1 h. The perfusate was analyzed by high-performance liquid chromatography (HPLC; Agilent 1100 series, Germany) coupled with a photo diode array detector (Agilent G1315B,) at 260 nm. Separations were obtained with a reversed-phase column (Cosmosil 5C18-AR-II, 250×4.6 mm, Kyoto, Japan) eluted at a flow rate of 1.0 ml/min with a linear solvent gradient elution system composed of eluents A and B (A: 0.0085% H3PO4 in H2O; B: 100% acetonitrile) according to the following profile: 0∼15 min, 100%∼90% A, 0%∼10% B.

[21] = system: R6/2 mice; experiment: Hemodynamic examination of R6/2 mice; assay type: in vivo; settings: subcutaneous Alzet minipump for 48 h, 125 µg/mouse/day
Method: Heart rates and blood pressure of conscious and anesthetized mice were measured using a blood pressure monitor (model MK-2000; Muromachi Kikai, Tokyo, Japan) between 10 AM to 6 PM. Values of 12–18 successful readings per mouse were used to determine the blood pressure.
(A) T1-11 (125 µg/mouse/day) or vehicle (CON) was administrated subcutaneously to the indicated mice of 7 weeks old using ALZET osmotic minipumps for 6 weeks. Rotarod performance was assessed. (B, C) T1-11 (125 µg/mouse/day) was administrated subcutaneously to the indicated mice of 9 weeks old using ALZET osmotic minipumps for 48 h. Heart rate (B) and blood pressure (C) were determined by a tail-cuff method. * p<0.05. *** p<0.005. (TIF) Click here for additional data file.

T1 sequence (P32247 whole entry): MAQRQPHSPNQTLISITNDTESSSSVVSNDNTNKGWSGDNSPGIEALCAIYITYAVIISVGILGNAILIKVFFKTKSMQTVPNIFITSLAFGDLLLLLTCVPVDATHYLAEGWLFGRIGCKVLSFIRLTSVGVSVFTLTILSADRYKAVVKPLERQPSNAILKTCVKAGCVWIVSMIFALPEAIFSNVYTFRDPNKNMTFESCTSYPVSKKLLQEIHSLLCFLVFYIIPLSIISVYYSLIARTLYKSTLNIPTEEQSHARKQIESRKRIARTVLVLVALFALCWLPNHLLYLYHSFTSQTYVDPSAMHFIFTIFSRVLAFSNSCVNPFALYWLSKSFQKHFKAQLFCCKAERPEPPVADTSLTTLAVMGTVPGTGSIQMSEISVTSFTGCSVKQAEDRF

Structure (SMILES): OC[C@H]1O[C@@H](n2cnc3c(NCc4ccc(O)cc4)ncnc32)[C@H](O)[C@@H]1O [T1-11, N ^6-(4-hydroxybenzyl)adenine riboside]
- % Inhibition [1]: -3%
- inhibition at 10 µM [2]: 12%
- inhibition at 10 µM [3]: -3%
- inhibition at 10 µM [4]: 1%
- inhibition at 10 µM [5]: 3%
- inhibition at 10 µM [6]: 2%
- inhibition at 10 µM [7]: 3%
- inhibition at 10 µM [8]: -1%
- inhibition at 10 µM [9]: -10%
- % Inhibition [10]: 3%
- inhibition at 10 µM [11]: 19%
- inhibition at 10 µM [12]: 6%
- inhibition at 10 µM [13]: 19%
- inhibition at 10 µM [14]: 27%
- inhibition at 10 µM [15]: 4%
- % Inhibition [16]: -9%
- inhibition at 10 µM [17]: -6%
- % Inhibition [18]: 16%
- Function ([19]; A2A adenosine receptor, elevates cellular cAMP levels): agonist
- pEC50 ([19]; PC12 cells, 20 min at RT, read-out: EC50, elevation of cellular cAMP levels): ~5.66
- Level of striatal adenosine (microdialysis) [20]: significantly enhanced the level of striatal adenosine
- Blood pressure [21]: did not change the blood pressure of R6/2 mice
- Heart rate [21]: did not affect their heart rate and blood pressure
